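Briefly, cells in 96-well plates were exposed to five compound concentrations for 48 h, and endpoints were estimated by linear interpolation. TGI: concentration producing complete growth inhibition.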
Experiments:
Assay in all cases: NCI tumour cell line growth inhibition, 48 h
786-0 renal = tested on: 786-0 renal
A498 renal = tested on: A498 renal
A549 NSCLC = tested on: A549 NSCLC
ACHN renal = tested on: ACHN renal
CCRF-CEM leukemia = tested on: CCRF-CEM leukemia
COLO 205 colon = tested on: COLO 205 colon
DLD-1 colon = tested on: DLD-1 colon
DMS 114 small cell lung = tested on: DMS 114 small cell lung
DMS 273 small cell lung = tested on: DMS 273 small cell lung
EKVX NSCLC = tested on: EKVX NSCLC
HCC-2998 colon = tested on: HCC-2998 colon
HCT-116 colon = tested on: HCT-116 colon
HCT-15 colon = tested on: HCT-15 colon
HL-60(TB) leukemia = tested on: HL-60(TB) leukemia
HOP-62 NSCLC = tested on: HOP-62 NSCLC
HOP-92 NSCLC = tested on: HOP-92 NSCLC
HT29 colon = tested on: HT29 colon
IGROV1 ovarian = tested on: IGROV1 ovarian
K-562 leukemia = tested on: K-562 leukemia
KM12 colon = tested on: KM12 colon
KM20L2 colon = tested on: KM20L2 colon
LOX IMVI melanoma = tested on: LOX IMVI melanoma
LXFL 529 NSCLC = tested on: LXFL 529 NSCLC
M14 melanoma = tested on: M14 melanoma
M19-MEL melanoma = tested on: M19-MEL melanoma
MALME-3M melanoma = tested on: MALME-3M melanoma
MOLT-4 leukemia = tested on: MOLT-4 leukemia
NCI-H226 lung = tested on: NCI-H226 lung
NCI-H23 lung = tested on: NCI-H23 lung
NCI-H460 lung = tested on: NCI-H460 lung
OVCAR-3 ovarian = tested on: OVCAR-3 ovarian
OVCAR-4 ovarian = tested on: OVCAR-4 ovarian
OVCAR-5 ovarian = tested on: OVCAR-5 ovarian
OVCAR-8 ovarian = tested on: OVCAR-8 ovarian
RPMI-8226 leukemia = tested on: RPMI-8226 leukemia
RXF 393 renal = tested on: RXF 393 renal
SF-268 CNS = tested on: SF-268 CNS
SF-295 CNS = tested on: SF-295 CNS
SF-539 CNS = tested on: SF-539 CNS
SK-MEL-2 melanoma = tested on: SK-MEL-2 melanoma
SK-MEL-28 melanoma = tested on: SK-MEL-28 melanoma
SK-MEL-5 melanoma = tested on: SK-MEL-5 melanoma
SK-OV-3 ovarian = tested on: SK-OV-3 ovarian
SN12C renal = tested on: SN12C renal
SNB-19 CNS = tested on: SNB-19 CNS
SNB-75 CNS = tested on: SNB-75 CNS
SNB-78 CNS = tested on: SNB-78 CNS
SW-620 colon = tested on: SW-620 colon
TK-10 renal = tested on: TK-10 renal
U251 CNS = tested on: U251 CNS
UACC-257 melanoma = tested on: UACC-257 melanoma
UACC-62 melanoma = tested on: UACC-62 melanoma
UO-31 renal = tested on: UO-31 renal
XF 498 CNS = tested on: XF 498 CNS
CAKI-1 renal = tested on: CAKI-1 renal
HOP-18 NSCLC = tested on: HOP-18 NSCLC
NCI-H522 lung = tested on: NCI-H522 lung
SR leukemia = tested on: SR leukemia
RXF-631 renal = tested on: RXF-631 renal

COC1[C@H](NC(=O)OC(C)(C)C)C(=O)N1Cc1ccccc1 (some centres undefined)
TGI (786-0 renal): > 100 µM
TGI (A498 renal): > 100 µM
TGI (A549 NSCLC): > 100 µM
TGI (ACHN renal): > 100 µM
TGI (CCRF-CEM leukemia): > 100 µM
TGI (COLO 205 colon): > 100 µM
TGI (DLD-1 colon): > 100 µM
TGI (DMS 114 small cell lung): > 100 µM
TGI (DMS 273 small cell lung): > 100 µM
TGI (EKVX NSCLC): > 100 µM
TGI (HCC-2998 colon): > 100 µM
TGI (HCT-116 colon): > 100 µM
TGI (HCT-15 colon): > 100 µM
TGI (HL-60(TB) leukemia): > 100 µM
TGI (HOP-62 NSCLC): > 100 µM
TGI (HOP-92 NSCLC): > 100 µM
TGI (HT29 colon): > 100 µM
TGI (IGROV1 ovarian): > 100 µM
TGI (K-562 leukemia): > 100 µM
TGI (KM12 colon): > 100 µM
TGI (KM20L2 colon): > 100 µM
TGI (LOX IMVI melanoma): > 100 µM
TGI (LXFL 529 NSCLC): > 100 µM
TGI (M14 melanoma): > 100 µM
TGI (M19-MEL melanoma): > 100 µM
TGI (MALME-3M melanoma): > 100 µM
TGI (MOLT-4 leukemia): > 100 µM
TGI (NCI-H226 lung): > 100 µM
TGI (NCI-H23 lung): > 100 µM
TGI (NCI-H460 lung): > 100 µM
TGI (OVCAR-3 ovarian): > 100 µM
TGI (OVCAR-4 ovarian): > 100 µM
TGI (OVCAR-5 ovarian): > 100 µM
TGI (OVCAR-8 ovarian): > 100 µM
TGI (RPMI-8226 leukemia): > 100 µM
TGI (RXF 393 renal): > 100 µM
TGI (SF-268 CNS): > 100 µM
TGI (SF-295 CNS): > 100 µM
TGI (SF-539 CNS): > 100 µM
TGI (SK-MEL-2 melanoma): > 100 µM
TGI (SK-MEL-28 melanoma): > 100 µM
TGI (SK-MEL-5 melanoma): > 100 µM
TGI (SK-OV-3 ovarian): > 100 µM
TGI (SN12C renal): > 100 µM
TGI (SNB-19 CNS): > 100 µM
TGI (SNB-75 CNS): > 100 µM
TGI (SNB-78 CNS): > 100 µM
TGI (SW-620 colon): > 100 µM
TGI (TK-10 renal): > 100 µM
TGI (U251 CNS): > 100 µM
TGI (UACC-257 melanoma): > 100 µM
TGI (UACC-62 melanoma): > 100 µM
TGI (UO-31 renal): > 100 µM
TGI (XF 498 CNS): > 100 µM

Cc1cc(C)c2c(c1)N[S@@](=O)S2
TGI (786-0 renal): 28.9 µM
TGI (A498 renal): > 100 µM
TGI (A549 NSCLC): > 100 µM
TGI (ACHN renal): 65.7 µM
TGI (CAKI-1 renal): 70.8 µM
TGI (CCRF-CEM leukemia): 61.3 µM
TGI (COLO 205 colon): 33.5 µM
TGI (DLD-1 colon): 59.2 µM
TGI (DMS 114 small cell lung): 38.7 µM
TGI (DMS 273 small cell lung): 38.2 µM
TGI (EKVX NSCLC): > 100 µM
TGI (HCC-2998 colon): > 100 µM
TGI (HCT-116 colon): 32.8 µM
TGI (HCT-15 colon): 33 µM
TGI (HL-60(TB) leukemia): 61.2 µM
TGI (HOP-18 NSCLC): 92.1 µM
TGI (HOP-62 NSCLC): > 100 µM
TGI (HOP-92 NSCLC): > 100 µM
TGI (HT29 colon): 41.1 µM
TGI (IGROV1 ovarian): > 100 µM
TGI (K-562 leukemia): 67.9 µM
TGI (KM12 colon): 69.6 µM
TGI (KM20L2 colon): > 100 µM
TGI (LOX IMVI melanoma): 30.7 µM
TGI (LXFL 529 NSCLC): 29.4 µM
TGI (M14 melanoma): 33.2 µM
TGI (M19-MEL melanoma): 46.7 µM
TGI (MALME-3M melanoma): 58.1 µM
TGI (MOLT-4 leukemia): 65.6 µM
TGI (NCI-H226 lung): 38.5 µM
TGI (NCI-H23 lung): > 100 µM
TGI (NCI-H460 lung): 46.5 µM
TGI (NCI-H522 lung): 31.9 µM
TGI (OVCAR-3 ovarian): 39 µM
TGI (OVCAR-4 ovarian): 61.3 µM
TGI (OVCAR-5 ovarian): 81.9 µM
TGI (OVCAR-8 ovarian): 33.2 µM
TGI (RPMI-8226 leukemia): 88.5 µM
TGI (RXF 393 renal): 26.3 µM
TGI (SF-268 CNS): 34.5 µM
TGI (SF-295 CNS): > 100 µM
TGI (SF-539 CNS): 50.5 µM
TGI (SK-MEL-2 melanoma): 82.9 µM
TGI (SK-MEL-28 melanoma): 95.1 µM
TGI (SK-MEL-5 melanoma): 80.6 µM
TGI (SK-OV-3 ovarian): 90.6 µM
TGI (SN12C renal): 36.7 µM
TGI (SNB-19 CNS): > 100 µM
TGI (SNB-75 CNS): > 100 µM
TGI (SNB-78 CNS): > 100 µM
TGI (SR leukemia): 83.7 µM
TGI (SW-620 colon): 16.5 µM
TGI (TK-10 renal): 80.3 µM
TGI (U251 CNS): 31.1 µM
TGI (UACC-257 melanoma): 35.7 µM
TGI (UACC-62 melanoma): 37.9 µM
TGI (UO-31 renal): 39.4 µM
TGI (XF 498 CNS): 50.1 µM

C/C(=N\NC(=S)NC(CCC(=O)O)C(=O)O)c1cnccn1 (centres undefined)
TGI (786-0 renal): > 100 µM
TGI (A498 renal): > 100 µM
TGI (A549 NSCLC): > 100 µM
TGI (ACHN renal): > 100 µM
TGI (CCRF-CEM leukemia): > 100 µM
TGI (COLO 205 colon): > 100 µM
TGI (DLD-1 colon): > 100 µM
TGI (DMS 114 small cell lung): > 100 µM
TGI (EKVX NSCLC): > 100 µM
TGI (HCC-2998 colon): > 100 µM
TGI (HCT-116 colon): > 100 µM
TGI (HCT-15 colon): > 100 µM
TGI (HL-60(TB) leukemia): > 100 µM
TGI (HOP-18 NSCLC): > 100 µM
TGI (HOP-62 NSCLC): > 100 µM
TGI (HOP-92 NSCLC): > 100 µM
TGI (HT29 colon): > 100 µM
TGI (IGROV1 ovarian): > 100 µM
TGI (K-562 leukemia): > 100 µM
TGI (KM12 colon): > 100 µM
TGI (KM20L2 colon): > 100 µM
TGI (LOX IMVI melanoma): > 100 µM
TGI (LXFL 529 NSCLC): > 100 µM
TGI (M14 melanoma): > 100 µM
TGI (M19-MEL melanoma): > 100 µM
TGI (MALME-3M melanoma): > 100 µM
TGI (MOLT-4 leukemia): > 100 µM
TGI (NCI-H226 lung): > 100 µM
TGI (NCI-H23 lung): > 100 µM
TGI (NCI-H460 lung): > 100 µM
TGI (NCI-H522 lung): > 100 µM
TGI (OVCAR-3 ovarian): > 100 µM
TGI (OVCAR-4 ovarian): > 100 µM
TGI (OVCAR-5 ovarian): > 100 µM
TGI (OVCAR-8 ovarian): > 100 µM
TGI (RPMI-8226 leukemia): > 100 µM
TGI (RXF 393 renal): > 100 µM
TGI (RXF-631 renal): > 100 µM
TGI (SF-268 CNS): > 100 µM
TGI (SF-295 CNS): > 100 µM
TGI (SF-539 CNS): > 100 µM
TGI (SK-MEL-2 melanoma): > 100 µM
TGI (SK-MEL-28 melanoma): > 100 µM
TGI (SK-MEL-5 melanoma): > 100 µM
TGI (SK-OV-3 ovarian): > 100 µM
TGI (SN12C renal): > 100 µM
TGI (SNB-19 CNS): > 100 µM
TGI (SNB-75 CNS): > 100 µM
TGI (SNB-78 CNS): > 100 µM
TGI (SR leukemia): > 100 µM
TGI (SW-620 colon): > 100 µM
TGI (TK-10 renal): > 100 µM
TGI (U251 CNS): > 100 µM
TGI (UACC-257 melanoma): > 100 µM
TGI (UACC-62 melanoma): > 100 µM
TGI (UO-31 renal): > 100 µM
TGI (XF 498 CNS): > 100 µM
